Data as given in patent US9499550B2 (BRISTOL-MYERS SQUIBB COMPANY, priority 2012, dated 2016).
pEC50: −log10 of the molar value. Like-named read-outs stand apart in the source and are kept apart here.

Columns and labels:
[1] = test system: HCV genotype 1a (H77 strain) replicon in HUH-7 cells; test: HCV replicon luciferase reporter assay, genotype 1a; format: cell-based; settings: Hepatitis C virus, Huh-7, 72 h, HCV genotype 1a replicon luciferase, 3 days incubation, read-out: LE_1a (EC50, range)
How it was run: (§1)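 Replicon inhibition for both genotypes was measured as Renilla luciferase signal (EnduRen, 7.5 μM final, 2 h) after 3-day, 37° C exposure of replicon-bearing HUH-7 cells in 4% FCS DMEM, 0.5% DMSO. The 1b construct carries S1179I; the 1a H77 construct carries P1496L and S2204I. Twenty-point, 3-fold dilutions were fitted four-parametrically for EC50, and CC50 was taken from multiplexed Cell Titer-Blue.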

[2] = test system: HCV genotype 1b (Con1) replicon in HUH-7 cells; test: HCV replicon luciferase reporter assay, genotype 1b; format: cell-based; settings: Hepatitis C virus, Huh-7, 72 h, HCV genotype 1b replicon luciferase, 3 days incubation, read-out: LE_1b (EC50, range)
How it was run: as §1

Row | SMILES | pEC50 [1] | pEC50 [2] | pEC50 ([1]; GETYPE1A) | pEC50 ([2]; GETYPE1B)
1 | CC[C@@H]1C[C@H](C)CC/C=C\[C@@H]2C[C@@]2(C(=O)NS(=O)(=O)C2(C)CC2)NC(=O)[C@@H]2C[C@@H](Oc3nccc4cc(OC)c(F)cc34)CN2C(=O)[C@H]1NC(=O)C(C)(C)C(F)(F)F [Compound 4332, (2R,6S,7R,9R,13aS,14aR,16aS,Z)-7-ethyl-2-((7-fluoro-6-methoxyisoquinolin-1-yl)oxy)-9-methyl-N-((1-methylcyclopropyl)sulfonyl)-5,16-dioxo-6-(3,3,3-trifluoro-2,2-dimethylpropanamido)-1,2,3,5,6,7,8,9,10,11,13a,14,14a,15,16,16a-hexadecahydrocyclopropa[e]pyrrolo[1,2-a][1,4]diazacyclopentadecine-14a-carboxamide] | 8.30 to 9.00 | 8.30 to 9.00 | – | –
2 | CC[C@@H]1C[C@H](C)CC/C=C\[C@@H]2C[C@@]2(C(=O)NS(=O)(=O)C2(C)CC2)NC(=O)[C@@H]2C[C@@H](Oc3nccc4cc(OC)c(F)cc34)CN2C(=O)[C@H]1NC(=O)N1CCOCC1 [Compound 4333, N-((2R,6S,7R,9R,13aS,14aR,16aS,Z)-7-ethyl-2-((7-fluoro-6-methoxyisoquinolin-1-yl)oxy)-9-methyl-14a-(((1-methylcyclopropyl)sulfonyl)carbamoyl)-5,16-dioxo-1,2,3,5,6,7,8,9,10,11,13a,14,14a,15,16,16a-hexadecahydrocyclopropa[e]pyrrolo[1,2-a][1,4]diazacyclopentadecin-6-yl)morpholine-4-carboxamide] | 7.46 to 8.30 | 7.46 to 8.30 | – | –
3 | CC[C@@H]1C[C@H](C)CC/C=C\[C@@H]2C[C@@]2(C(=O)NS(=O)(=O)C2(C)CC2)NC(=O)[C@@H]2C[C@@H](Oc3nccc4cc(OC)c(F)cc34)CN2C(=O)[C@H]1NC(=O)N1CC(C)OC(C)C1 (stereo partly drawn) [Compound 4334, N-((2R,6S,7R,9R,13aS,14aR,16aS,Z)-7-ethyl-2-((7-fluoro-6-methoxyisoquinolin-1-yl)oxy)-9-methyl-14a-(((1-methylcyclopropyl)sulfonyl)carbamoyl)-5,16-dioxo-1,2,3,5,6,7,8,9,10,11,13a,14,14a,15,16,16a-hexadecahydrocyclopropa[e]pyrrolo[1,2-a][1,4]diazacyclopentadecin-6-yl)-2,6-dimethylmorpholine-4-carboxamide] | 8.30 to 9.00 | 8.30 to 9.00 | – | –
4 | CC[C@@H]1C[C@H](C)CC/C=C\[C@@H]2C[C@@]2(C(=O)NS(=O)(=O)C2(C)CC2)NC(=O)[C@@H]2C[C@@H](Oc3nccc4cc(OC)c(F)cc34)CN2C(=O)[C@H]1NC(=O)N1CCN(C)CC1 [Compound 4335, (2R,6S,7R,9R,13aS,14aR,16aS,Z)-7-ethyl-2-((7-fluoro-6-methoxyisoquinolin-1-yl)oxy)-9-methyl-N-((1-methylcyclopropyl)sulfonyl)-6-(4-methylpiperazine-1-carboxamido)-5,16-dioxo-1,2,3,5,6,7,8,9,10,11,13a,14,14a,15,16,16a-hexadecahydrocyclopropa[e]pyrrolo[1,2-a][1,4]diazacyclopentadecine-14a-carboxamide] | 7.46 to 8.30 | 7.46 to 8.30 | – | –
5 | CC(C)Oc1ccc2nc(C(F)(F)F)c(O[C@@H]3C[C@H]4C(=O)N[C@]5(C(=O)NS(=O)(=O)C6(C)CC6)C[C@H]5/C=C\CC[C@@H](C)C[C@@H](C)[C@H](NC(=O)OC(C)(C)C(F)(F)F)C(=O)N4C3)nc2c1 [Compound 4336] | – | – | 9.00 to 9.29 | 9.00 to 9.29
6 | CC[C@@H]1C[C@H](C)CC/C=C\[C@@H]2C[C@@]2(C(=O)NS(=O)(=O)C2CC2)NC(=O)[C@@H]2C[C@@H](Oc3nc4cc(OC(C)C)ccc4nc3C(F)(F)F)CN2C(=O)[C@H]1NC(=O)OC(C)(C)C [Compound 4337, tert-butyl ((2R,6S,7R,9R,13aS,14aR,16aS,Z)-14a-((cyclopropylsulfonyl)carbamoyl)-7-ethyl-2-((7-isopropoxy-3-(trifluoromethyl)quinoxalin-2-yl)oxy)-9-methyl-5,16-dioxo-1,2,3,5,6,7,8,9,10,11,13a,14,14a,15,16,16a-hexadecahydrocyclopropa[e]pyrrolo[1,2-a][1,4]diazacyclopentadecin-6-yl)carbamate] | 9.00 to 9.29 | 9.00 to 9.29 | – | –
7 | CC[C@@H]1C[C@H](C)CC/C=C\[C@@H]2C[C@@]2(C(=O)NS(=O)(=O)C2CC2)NC(=O)[C@@H]2C[C@@H](Oc3nc4cc(OC(C)C)ccc4nc3C(F)(F)F)CN2C(=O)[C@H]1NC(=O)OC(C)(C)C(F)(F)F [Compound 4338] | – | – | 8.30 to 9.00 | 8.30 to 9.00
8 | COc1cnc2ccc(O[C@@H]3C[C@H]4C(=O)N[C@]5(C(=O)NS(=O)(=O)C6(C)CC6)C[C@H]5/C=C\CC[C@@H](C)C[C@@H](C)[C@H](NC(=O)OC(C)(C)C(F)(F)F)C(=O)N4C3)cc2n1 [Compound 4339] | – | – | 9.30 to 10.00 | 9.30 to 10.00
9 | CC[C@@H]1C[C@H](C)CC/C=C\[C@@H]2C[C@@]2(C(=O)NS(=O)(=O)C2CC2)NC(=O)[C@@H]2C[C@@H](Oc3cnnc4cc(OC)ccc34)CN2C(=O)[C@H]1NC(=O)OC(C)(C)C [Compound 4340, tert-butyl ((2R,6S,7R,9R,13aS,14aR,16aS,Z)-14a-((cyclopropylsulfonyl)carbamoyl)-7-ethyl-2-((7-methoxycinnolin-4-yl)oxy)-9-methyl-5,16-dioxo-1,2,3,5,6,7,8,9,10,11,13a,14,14a,15,16,16a-hexadecahydrocyclopropa[e]pyrrolo[1,2-a][1,4]diazacyclopentadecin-6-yl)carbamate] | 7.46 to 8.30 | 7.46 to 8.30 | – | –
10 | CC[C@@H]1C[C@H](C)CC/C=C\[C@@H]2C[C@@]2(C(=O)NS(=O)(=O)C2(C)CC2)NC(=O)[C@@H]2C[C@@H](Oc3ncc(OC)c4ccc(F)cc34)CN2C(=O)[C@H]1NC(=O)N1CCN(C)CC1 [Compound 4341, (2R,6S,7R,9R,13aS,14aR,16aS,Z)-7-ethyl-2-((7-fluoro-4-methoxyisoquinolin-1-yl)oxy)-9-methyl-N-((1-methylcyclopropyl)sulfonyl)-6-(4-methylpiperazine-1-carboxamido)-5,16-dioxo-1,2,3,5,6,7,8,9,10,11,13a,14,14a,15,16,16a-hexadecahydrocyclopropa[e]pyrrolo[1,2-a][1,4]diazacyclopentadecine-14a-carboxamide] | 8.30 to 9.00 | 8.30 to 9.00 | – | –
11 | CC[C@@H]1C[C@H](C)CC/C=C\[C@@H]2C[C@@]2(C(=O)NS(=O)(=O)C2CC2)NC(=O)[C@@H]2C[C@@H](Oc3ncc(C(N)=O)c4cc(OC)ccc34)CN2C(=O)[C@H]1NC(=O)OC(C)(C)C [Compound 4342, tert-butyl ((2R,6S,7R,9R,13aS,14aR,16aS,Z)-2-((4-carbamoyl-6-methoxyisoquinolin-1-yl)oxy)-14a-((cyclopropylsulfonyl)carbamoyl)-7-ethyl-9-methyl-5,16-dioxo-1,2,3,5,6,7,8,9,10,11,13a,14,14a,15,16,16a-hexadecahydrocyclopropa[e]pyrrolo[1,2-a][1,4]diazacyclopentadecin-6-yl)carbamate] | 7.46 to 8.30 | 6.21 to 7.46 | – | –
12 | CC[C@@H]1C[C@H](C)CC/C=C\[C@@H]2C[C@@]2(C(=O)NS(=O)(=O)C2(C)CC2)NC(=O)[C@@H]2C[C@@H](Oc3ncc(C(N)=O)c4cc(OC)ccc34)CN2C(=O)[C@H]1NC(=O)OC(C)(C)C [Compound 4343, tert-butyl ((2R,6S,7R,9R,13aS,14aR,16aS,Z)-2-((4-carbamoyl-6-methoxyisoquinolin-1-yl)oxy)-7-ethyl-9-methyl-14a-(((1-methylcyclopropyl)sulfonyl)carbamoyl)-5,16-dioxo-1,2,3,5,6,7,8,9,10,11,13a,14,14a,15,16,16a-hexadecahydrocyclopropa[e]pyrrolo[1,2-a][1,4]diazacyclopentadecin-6-yl)carbamate] | 7.46 to 8.30 | 7.46 to 8.30 | – | –
